From patent publication US20240158446A1, “CYCLIC COMPOUND HAVING SELECTIVE INHIBITORY ACTION ON KRAS OVER HRAS AND NRAS” (CHUGAI SEIYAKU KABUSHIKI KAISHA, priority 2021, published 2024)
Where two headings read alike, the source gives them in different places. Where a SMILES comes first, the peptide text is derived from it. Bridges are numbered along the chain shown (N, C = ends). [ ]: non-standard residue; d: D form. The star is where a group is joined. hPhe(3-Cl-4-CF3) = N[C@@H](CCc1ccc(C(F)(F)F)c(Cl)c1)C(=O)O; NPrPhe(4-Me) = CCCN[C@@H](Cc1ccc(C)cc1)C(=O)O; NMeGly(cPent) = CN[C@H](C(=O)O)C1CCCC1; NMeD = CN[C@@H](CC(=O)O)C(=O)O; NMeL = CN[C@@H](CC(C)C)C(=O)O; Morpholide = C1CN(*)CCO1; Ac5c = NC1(C(=O)O)CCCC1; Aze = O=C(O)[C@@H]1CCN1; Sar = CNCC(=O)O

Columns and labels:
[1] = biological target: GDP-bound KRAS wild-type protein (Homo sapiens, UniProt P01116); test: Binding to KRAS by surface plasmon resonance (SPR), Single Cycle Kinetics
Sequence of GDP-bound KRAS wild-type protein (P01116 whole entry): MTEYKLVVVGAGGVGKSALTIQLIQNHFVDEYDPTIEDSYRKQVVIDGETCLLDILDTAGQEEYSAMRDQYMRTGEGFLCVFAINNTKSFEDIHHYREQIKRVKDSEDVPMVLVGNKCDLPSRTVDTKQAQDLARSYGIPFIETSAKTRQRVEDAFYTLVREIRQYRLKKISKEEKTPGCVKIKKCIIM

[2] = system: human lung cancer strain NCI-H441;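 further: cell proliferation inhibition after four days measured by CellTiter-Glo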
[3] = biological target: GDP-bound HRAS wild-type protein (Homo sapiens, UniProt P01112); test: Binding to HRAS by surface plasmon resonance (SPR), Single Cycle Kinetics; details: for HRAS/KRAS (ratio of KD value for HRAS to KD value for KRAS) / ratio of the KD value with respect to GDP-bound HRAS wild-type protein to the KD value with respect to KRAS: SPR; for HRAS/KRAS (ratio of KD value for HRAS to KD value for KRAS): GDP-bound HRAS wild-type protein vs GDP-bound KRAS wild-type protein; for HRAS/KRAS (ratio of KD value with respect to GDP-bound HRAS wild-type protein to KD value with respect to KRAS): SPR KD ratio HRAS/KRAS, class symbols
Sequence of GDP-bound HRAS wild-type protein (P01112 whole entry): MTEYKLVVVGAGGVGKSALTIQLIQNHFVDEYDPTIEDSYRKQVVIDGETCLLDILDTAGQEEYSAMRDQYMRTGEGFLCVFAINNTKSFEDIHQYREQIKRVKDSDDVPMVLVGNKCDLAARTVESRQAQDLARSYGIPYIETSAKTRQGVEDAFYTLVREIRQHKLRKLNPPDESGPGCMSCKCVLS

[4] = biological target: GDP-bound NRAS wild-type protein (Homo sapiens, UniProt P01111); test: Binding to NRAS by surface plasmon resonance (SPR), Single Cycle Kinetics; details: SPR; for NRAS/KRAS (ratio of KD value for NRAS to KD value for KRAS): GDP-bound NRAS wild-type protein vs GDP-bound KRAS wild-type protein
Sequence of GDP-bound NRAS wild-type protein (P01111 whole entry): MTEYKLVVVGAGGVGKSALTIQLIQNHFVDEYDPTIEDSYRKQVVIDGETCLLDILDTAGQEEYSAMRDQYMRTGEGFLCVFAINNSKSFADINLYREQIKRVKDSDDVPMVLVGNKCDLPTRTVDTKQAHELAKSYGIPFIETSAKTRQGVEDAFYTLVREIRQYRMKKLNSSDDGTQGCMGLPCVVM

[5] = SPR Single Cycle Kinetics, GDP-bound KRAS wild-type protein, 1:1 binding model, read-out: KRAS KD
[6] = SPR, Single Cycle Kinetics, GDP-bound KRAS wild-type protein, read-out: KRAS KD
[7] = read-out: NCI-H441 cell proliferation inhibitory activity, 50% proliferation inhibitory concentration (IC50 value), NCI-H441, four days, CellTiter-Glo

Row | SMILES | IC50 [2] | HRAS/KRAS (ratio of KD value for HRAS to KD value for KRAS) [3] | NRAS/KRAS (ratio of KD value for NRAS to KD value for KRAS) [4] | ratio of the KD value with respect to GDP-bound HRAS wild-type protein to the KD value with respect to KRAS [3] | IC50 [2, 7] | ratio of the KD value with respect to GDP-bound NRAS wild-type protein to the KD value with respect to KRAS [4] | other results
1 | CCCN1C(=O)[C@@H]2CCN2C(=O)[C@H](C)NC(=O)[C@H]([C@@H](C)CC)NC(=O)[C@H](CC(C)C)N(C)C(=O)C[C@@H](C(=O)N2CCOCC2)N(C)C(=O)[C@H](C2CCCC2)N(C)C(=O)C2(CCCC2)NC(=O)[C@@H]2CCCN2C(=O)[C@H](CCc2ccc(C(F)(F)F)c(Cl)c2)NC(=O)CN(C)C(=O)[C@@H]1Cc1ccc(C)cc1 [PP0071] ([NMeL]IA[Aze][NPrPhe(4-Me)][Sar][hPhe(3-Cl-4-CF3)]P[Ac5c][NMeGly(cPent)][NMeD]-Morpholide; lactam N-11) | 3.8 nM |  |  |  |  |  | Kd [1, 5]: 0.15 nM
2 | CCCCCC[C@H]1C(=O)N[C@@H]([C@@H](C)CC)C(=O)N(C)CC(=O)N(C)[C@H]2C/C=C\CCN(C2=O)[C@@H](Cc2ccc(C(F)(F)F)cc2)C(=O)N(C)CC(=O)N[C@@H](CCc2cc(F)c(C(F)(F)F)c(F)c2)C(=O)N2C[C@H](OCC)C[C@H]2C(=O)NC2(CCC2)C(=O)N(C)[C@@H](C(CC)CC)C(=O)N(C)[C@H](C(=O)N(C)C)CC(=O)N1C [PP1202] | 24.1 nM |  |  |  |  |  | Kd [1, 6]: 0.4 nM
3 | CCC(CC)[C@H]1C(=O)N(C)[C@H](C(=O)N(C)C)CC(=O)N(C)[C@@H](COC)C(=O)N[C@@H]([C@@H](C)CC)C(=O)N(C2CC2)CC(=O)N(C)[C@H]2C/C=C\CCN(C2=O)[C@@H](CC2CCCCC2)C(=O)N(C)CC(=O)N[C@@H](CCc2ccc(Cl)c(Cl)c2)C(=O)N2C[C@H](OC(C)C)C[C@H]2C(=O)NC2(CC(C)(C)C2)C(=O)N1C [PP2517] | 562 nM | A (a compound having 10 or more and less than 20 is denoted as A) |  |  |  |  | Kd [1, 6]: 9.3 nM
4 | CCC[C@H]1C(=O)N[C@@H](CC(C)C)C(=O)N(C2CC2)CC(=O)N(C)[C@H]2C/C=C\CCN(C2=O)[C@@H](Cc2ccc(C)cc2)C(=O)N(C)CC(=O)N[C@@H](CCc2ccc(C(F)(F)F)c(Cl)c2)C(=O)N2C[C@H](OCC)C[C@H]2C(=O)NC2(CCC2)C(=O)N(C)[C@@H](C2CCCC2)C(=O)N(C)[C@H](C(=O)N(C)C)CC(=O)N1C [PP2543] | 179 nM |  |  |  |  |  | HRAS/KRAS (ratio of KD value with respect to GDP-bound HRAS wild-type protein to KD value with respect to KRAS) [3]: B (a compound having 3 or more and less than 10 is denoted as B); Kd [1, 5]: 4.2 nM
5 | CC[C@H](C)[C@@H]1NC(=O)[C@H](COC)N(C)C(=O)C[C@@H](C(=O)N2CCCCC2)N(C)C(=O)[C@H](C2CCCC2)N(C)C(=O)C2(CC(C)(C)C2)NC(=O)[C@@H]2C[C@@H](OC(C)C)CN2C(=O)[C@H](CCc2cc(F)c(C(F)(F)F)c(F)c2)NC(=O)CN(C)C(=O)[C@H](Cc2ccc(C(F)(F)F)cc2)N2CC/C=C\C[C@@H](C2=O)N(C)C(=O)CN(C)C1=O [PP2663] | 11.2 nM |  |  |  |  |  | HRAS/KRAS (ratio of KD value with respect to GDP-bound HRAS wild-type protein to KD value with respect to KRAS) [3]: A (a compound having 10 or more and less than 20 is denoted as A); Kd [1, 5]: 0.24 nM
6 | CCC[C@H]1C(=O)N[C@@H](C2CCCCC2)C(=O)N(C)CC(=O)N(C)[C@H]2C/C=C\CCN(C2=O)[C@@H](Cc2ccc(C)cc2)C(=O)N(C)CC(=O)N[C@@H](CCc2ccc(C(F)(F)F)c(Cl)c2)C(=O)N2C[C@H](OCC)C[C@H]2C(=O)NC2(CC(C)(C)C2)C(=O)N(C)[C@@H](CC(C)(C)C)C(=O)N(C)[C@H](C(=O)N(C)C)CC(=O)N1C [PP3018] | 19.1 nM | B (a compound having 3 or more and less than 10 is denoted as B) | A (a compound having 10 or more and less than 20 is denoted as A) |  |  |  | 
7 | CCC(CC)[C@H]1C(=O)N(C)[C@H](C(=O)N2CCCCC2)CC(=O)N(C)[C@H]2CCC/C=C/c3ccc(cc3)C[C@@H](C(=O)N(C)CC(=O)N[C@@H](CCc3ccc(Cl)c(Cl)c3)C(=O)N3CCC[C@H]3C(=O)NC3(CC(C)(C)C3)C(=O)N1C)N1CC/C=C\C[C@@H](C1=O)N(C)C(=O)CN(C)C(=O)[C@H]([C@@H](C)CC)NC2=O [PP3055] |  | A (a compound having 10 or more and less than 20 is denoted as A) | AA (a compound having 20 or more is denoted as AA) |  |  |  | IC50 ([2]; read-out: NCI-H441 IC50, NCI-H441 cells, four days, CellTiter-Glo): 69.2 nM
8 | CCCO[C@@H]1C[C@H]2C(=O)NC3(CC(C)(C)C3)C(=O)N(C)[C@@H](C3CCCC3)C(=O)N(C)[C@H](C(=O)N(C)CC)CC(=O)N(C)[C@H]3CCCc4ccc(cc4)C[C@@H](C(=O)N(C)CC(=O)N[C@@H](CCc4ccc(C(F)(F)F)c(OC)c4)C(=O)N2C1)N1CC/C=C\C[C@@H](C1=O)N(C)C(=O)CN(C)C(=O)[C@H]([C@@H](C)CC)NC3=O [PP3083] |  | A (a compound having 10 or more and less than 20 is denoted as A) | A (a compound having 10 or more and less than 20 is denoted as A) | A (a compound having 10 or more and less than 20 is denoted as A) | 2.5 nM | A (a compound having 10 or more and less than 20 is denoted as A) | 
9 | CC[C@H](C)[C@@H]1NC(=O)[C@@H]2CCCc3ccc(cc3)C[C@@H](C(=O)N(C)CC(=O)N[C@@H](CCc3ccc(C(F)(F)F)c(OC)c3)C(=O)N3C[C@H](OC(C)C)C[C@H]3C(=O)NC3(CC(C)(C)C3)C(=O)N(C)[C@@H](C3CCCC3)C(=O)N(C)[C@H](C(=O)N(C)CC)CC(=O)N2C)N2CC/C=C\C[C@@H](C2=O)N(C)C(=O)CN(C)C1=O [PP3084] |  | B (a compound having 3 or more and less than 10 is denoted as B) | A (a compound having 10 or more and less than 20 is denoted as A) | B (a compound having 3 or more and less than 10 is denoted as B) | 3.7 nM | A (a compound having 10 or more and less than 20 is denoted as A) | 
10 | CCO[C@@H]1C[C@H]2C(=O)N(C)C3(CC(C)(C)C3)C(=O)N(C)[C@@H](C3CCCC3)C(=O)N(C)[C@H](C(=O)N(C)C)CC(=O)N(C)[C@H]3CCCCCc4ccc(cc4)C[C@@H](C(=O)N(C)CC(=O)N[C@@H](CCc4ccc(C(F)(F)F)c(OC)c4)C(=O)N2C1)N1CC/C=C\C[C@@H](C1=O)N(C)C(=O)CN(C)C(=O)[C@H]([C@@H](C)CC)NC3=O [PP3091] |  | B (a compound having 3 or more and less than 10 is denoted as B) | A (a compound having 10 or more and less than 20 is denoted as A) | B (a compound having 3 or more and less than 10 is denoted as B) | 1.2 nM | A (a compound having 10 or more and less than 20 is denoted as A) | 
11 | CC[C@H](C)[C@@H]1NC(=O)[C@H](CC(C)C)N(C)C(=O)CSC[C@H](C(=O)N(C)C)N(C)C(=O)[C@H](C2CCCC2)N(C)C(=O)C2(CCCC2)NC(=O)[C@@H]2CCCN2C(=O)[C@H](CCc2cc(F)c(C(F)(F)F)c(F)c2)NC(=O)CN(C)C(=O)[C@H](Cc2ccc(C(F)(F)F)cc2)N2CC/C=C\C[C@@H](C2=O)N(C)C(=O)CN(C)C1=O [PP3109] |  |  |  |  | 3420 nM |  | Kd ([1]; SPR, Single Cycle Kinetics, 1:1 binding model, read-out: KD value with respect to GDP-bound KRAS wild-type protein): 3000 nM; Kd [1, 6]: 3000 nM
12 | CCC[C@H]1C(=O)N[C@@H]([C@@H](C)CC)C(=O)N(C2CC2)CC(=O)N(C)[C@H]2C/C=C\CCN(C2=O)[C@@H](Cc2ccc(C)cc2)C(=O)N(C)CC(=O)N[C@@H](CCc2cc(F)c(C(F)(F)F)c(F)c2)C(=O)N2C[C@H](OCC)C[C@H]2C(=O)N(C)C2(CCC2)C(=O)N(C)[C@@H](C2CCCC2)C(=O)N(C)[C@H](C(=O)N2CCCCC2)CC(=O)N1C [PP3111, (2S,8S,12R,14S,20S,23S,27S,30S,36S,38Z)-20-cyclopentyl-32-cyclopropyl-8-[2-[3,5-difluoro-4-(trifluoromethyl)phenyl]ethyl]-12-ethoxy-4,16,19,22,26,35-hexamethyl-30-[(1S)-1-methylpropyl]-23-(piperidine-1-carbonyl)-27-propyl-2-(p-tolylmethyl)spiro[1,4,7,1016192226293235-undecazatricyclo[34.5.1.0^10,14]dotetracont-38-ene-17,1′-cyclobutane]-3,6,9,15,18,21,25,28,31,34,42-undecone] |  | A (a compound having 10 or more and less than 20 is denoted as A) | A (a compound having 10 or more and less than 20 is denoted as A) | A (a compound having 10 or more and less than 20 is denoted as A) | 17.8 nM | A (a compound having 10 or more and less than 20 is denoted as A) | 
